pIC50: −log10 of the molar value.
Target: Translocator protein (Rattus norvegicus, UniProt P16257)
Experiment: Inhibitory activity against specific binding of [3H]-CB 34 to peripheral benzodiazepine receptor in rat cortical membranes was evaluated
Format: cell membranes, Membrane

Chain of Translocator protein (P16257 whole entry, looked up): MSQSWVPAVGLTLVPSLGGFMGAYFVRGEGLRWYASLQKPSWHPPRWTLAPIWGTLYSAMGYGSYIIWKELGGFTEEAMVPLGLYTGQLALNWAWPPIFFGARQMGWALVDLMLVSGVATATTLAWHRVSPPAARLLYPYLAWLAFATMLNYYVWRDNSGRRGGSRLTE

SMILES | pIC50
CN(Cc1ccccc1)C(=O)c1cc(-c2ccccc2)c2ccccc2c1 | 7.19
Cc1c(C(=O)NCc2ccccc2)nc2ccccc2c1-c1ccccc1F | 5.83
Cc1c(C(=O)NCc2ccccc2)cc2ccccc2c1-c1ccccc1 | 5.18
Cc1c(C(=O)N(Cc2ccccc2)Cc2ccccc2)nc2ccccc2c1-c1ccccc1 | 7.96
CCN(Cc1ccccc1)Cc1c(C(=O)N(C)Cc2ccccc2)nc2ccccc2c1-c1ccccc1 | 7.89
O=C(NCc1ccccc1)c1cc(-c2ccccc2)c2ccccc2n1 | 4.94
C#CCN(C)C(=O)c1nc2ccccc2c(-c2ccccc2)c1C | 7.49
O=C(NCc1ccccc1)c1cc(-c2ccccc2)c2ccccc2c1 | 5.57

Next, values leading:

pIC50 | SMILES
8.06 | CN(Cc1ccccc1)C(=O)c1nc2ccccc2c(-c2ccccc2)c1CO
4.99 | Cc1c(C(=O)NCc2ccccc2)nc2ccccc2c1-c1ccccc1
9.35 | CN(Cc1ccccc1)C(=O)c1nc2ccccc2c(-c2ccccc2)c1CCl
7.92 | CCN(CC)Cc1c(C(=O)N(C)Cc2ccccc2)nc2ccccc2c1-c1ccccc1
8.01 | Cc1c(C(=O)N(C)Cc2ccccc2)cc2ccccc2c1-c1ccccc1
8.34 | Cc1c(C(=O)N(C)Cc2ccccc2)nc2ccccc2c1-c1ccccc1
7.42 | CN(Cc1ccccc1)C(=O)c1cc(-c2ccccc2)c2ccccc2n1
8.66 | Cc1c(C(=O)N(C)Cc2ccccc2)nc2ccccc2c1-c1ccccc1F
